The text below walks through data of patent publication US10364247B2, “Preparation and use of novel protein kinase inhibitors” (Ruijin Hospital Affiliated to Shanghai Jiao Tong University …, priority 2015, dated 2019).

What all share (assay type): cell-based, murine
The target in one experiment is T1, BaF3-BCR/ABL (Homo sapiens, UniProt P00519).
T1 construct: fused on or other part: P11274 (Breakpoint cluster region protein)
Description: Antiproliferative activity, kinase-dependent Ba/F3 cells (MTT/MTS). Particulars: 48 hours, cell viability, read-out: BCR/ABL IC50. The protocol: (§1) Following up on the kinome data, the ability of compounds disclosed in the present invention to inhibit proliferation of cells that are dependent on selected protein kinases was tested. […] In addition, compounds were assayed to measure their capacity to inhibit TIE1, LYN, EML4-ALK, INSR and HCK kinases.
(§2) The murine cell line used is the BaF/3 cell line transformed with BCR/ABL cDNA (BaF/3-p210) or BCR/ABL-T315I mutant (Ba/F3-p210-T315I). These cells are maintained in RPMI/10% fetal calf serum (RPMI/FCS) supplemented with penicillin 50 μg/mL, streptomycin 50 μg/mL and L-glutamine […]. Untransformed BaF/3 cells (Wt-BaF/3) are similarly maintained with the addition of 15% of WEHI conditioned medium as a source of IL3.
(§3) Cells were seeded at a density of 20,000 cells/well into 96-well plates.
(§4) The background control wells to which media with no cells added and the vehicle control wells were included on each plate in triplicate. Cell viability was determined using MTT (Sigma, St. Louis, Mo., USA) and MTS (Promega, Madison, Wis., USA), according to the manufacturer's instructions. Results were analyzed using GraphPad Prism 5.0 (GraphPad Software, San Diego, Calif.) and IC50 values were calculated from cell viability dose-response curves and defined as the concentration of compound needed to reduce cell viability to 50% of a vehicle control (DMSO) (Table 3).

In a further experiment the target is T2, BaF3-BCR/ABL-T315I (Homo sapiens, UniProt P00519, T315I, cells depend on it).
T2 construct: fused on or other part: P11274 (Breakpoint cluster region protein)
Described as above. Particulars: 48 hours, cell viability, read-out: BCR/ABL T315I IC50. As to the method:
as §1, §2, §3, §4

The next experiment deals with BaF3-KRASD12. Description: Oncogenic RAS dependent cell proliferation (CellTiter Glo). Particulars: Mus musculus, BaF3-KRASD12 cells, 48 hours, read-out: KRas-BaF3 IC50. As to the method: (§5) The BaF/3 cell line transformed with oncogenic NRAS or KRAS (BaF/3-NRASD12 or BaF/3-KRASD12) and the parental BaF/3 cells were used to measure the abilities of compounds of the invention to suppress RAS transformation (Table 5). Cells were seeded at a density of 5000 cells/well into 96-well plates. […] The background control wells to which media with no cells added and the vehicle control wells were included on each plate in triplicate. Cell viability was determined using CellTiter Glo Assay (Promega) according to manufacture's instruction with a minor modification of diluting 1 part CellTiter Glo reagent to 4 parts phosphate buffered saline (PBS) before use. The luminescence value was read out by an Envision (PerkinElmer).
For orientation: In ATP-based viability assays light output follows the ATP content of the culture.

Another experiment concerns BaF3-NRASD12. The description is as above. Particulars: Mus musculus, BaF3-NRASD12 cells, 48 hours, read-out: NRas-BaF3 IC50. The protocol:
as §5

In a further experiment the test system is Wt-BaF3. Description: Parental Ba/F3 cell proliferation (CellTiter Glo). The conditions noted are these: Mus musculus, parental BaF/3 cells, 48 hours. As to the method:
as §2, §5

In the next experiment the target is T3, BaF3-TEL-LYN (Homo sapiens, UniProt P07948).
T3 construct: fused on or other part: P41212 (Transcription factor ETV6)
Description: Antiproliferative activity, kinase-dependent Ba/F3 cells (MTT/MTS). The conditions noted are these: 48 hours, cell viability, read-out: tel-LYN IC50. The protocol: as §1, §2, §3, §4
(§6) Cell proliferation assays of compounds of the invention against TIE1, LYN, EML4-ALK, INSR and Hck were conducted using identical methods as described above for BCR/ABL, except that BaF3-TEL-TIE1, BaF3-TEL-LYN, BaF3-EML4-ALK, BaF3-TEL-INSR, and BaF3-TEL-HCK are used instead of BaF3-BCR/ABL (Table 3 and 4).

For the next experiment, the target named is T4, BaF3-EML4-ALK (Homo sapiens, UniProt Q9UM73).
T4 construct: fused on or other part: Q9HC35 (Echinoderm microtubule-associated protein-like 4)
The description is as above. Particulars: 48 hours, cell viability, read-out: EML4-ALK IC50. As to the method: as §1, §2, §3, §4, §6

A further experiment deals with T5, BaF3-TEL-HCK (Homo sapiens, UniProt P08631).
T5 construct: fused on or other part: P41212 (Transcription factor ETV6)
Described as above. Particulars: 48 hours, cell viability, read-out: Tel-HCK IC50. As to the method: as §1, §2, §3, §4, §6

The target of a further experiment is T6, BaF3-TEL-TIE1 (Homo sapiens, UniProt P35590).
T6 construct: fused on or other part: P41212 (Transcription factor ETV6)
The description is as above. The conditions noted are these: 48 hours, cell viability, read-out: tel-TIE1 IC50. The protocol: as §1, §2, §3, §4, §6

Another experiment deals with T7, BaF3-TEL-INSR (Homo sapiens, UniProt P06213).
T7 construct: fused on or other part: P41212 (Transcription factor ETV6)
The description is as above. Particulars: 48 hours, cell viability, read-out: Tel-INSR IC50. As to the method:
as §1, §2, §3, §4, §6

A value given as a limit tells only on which side of the number the result lay.

T4 sequence (Q9UM73 whole entry, change not shown, the tested form may be a part): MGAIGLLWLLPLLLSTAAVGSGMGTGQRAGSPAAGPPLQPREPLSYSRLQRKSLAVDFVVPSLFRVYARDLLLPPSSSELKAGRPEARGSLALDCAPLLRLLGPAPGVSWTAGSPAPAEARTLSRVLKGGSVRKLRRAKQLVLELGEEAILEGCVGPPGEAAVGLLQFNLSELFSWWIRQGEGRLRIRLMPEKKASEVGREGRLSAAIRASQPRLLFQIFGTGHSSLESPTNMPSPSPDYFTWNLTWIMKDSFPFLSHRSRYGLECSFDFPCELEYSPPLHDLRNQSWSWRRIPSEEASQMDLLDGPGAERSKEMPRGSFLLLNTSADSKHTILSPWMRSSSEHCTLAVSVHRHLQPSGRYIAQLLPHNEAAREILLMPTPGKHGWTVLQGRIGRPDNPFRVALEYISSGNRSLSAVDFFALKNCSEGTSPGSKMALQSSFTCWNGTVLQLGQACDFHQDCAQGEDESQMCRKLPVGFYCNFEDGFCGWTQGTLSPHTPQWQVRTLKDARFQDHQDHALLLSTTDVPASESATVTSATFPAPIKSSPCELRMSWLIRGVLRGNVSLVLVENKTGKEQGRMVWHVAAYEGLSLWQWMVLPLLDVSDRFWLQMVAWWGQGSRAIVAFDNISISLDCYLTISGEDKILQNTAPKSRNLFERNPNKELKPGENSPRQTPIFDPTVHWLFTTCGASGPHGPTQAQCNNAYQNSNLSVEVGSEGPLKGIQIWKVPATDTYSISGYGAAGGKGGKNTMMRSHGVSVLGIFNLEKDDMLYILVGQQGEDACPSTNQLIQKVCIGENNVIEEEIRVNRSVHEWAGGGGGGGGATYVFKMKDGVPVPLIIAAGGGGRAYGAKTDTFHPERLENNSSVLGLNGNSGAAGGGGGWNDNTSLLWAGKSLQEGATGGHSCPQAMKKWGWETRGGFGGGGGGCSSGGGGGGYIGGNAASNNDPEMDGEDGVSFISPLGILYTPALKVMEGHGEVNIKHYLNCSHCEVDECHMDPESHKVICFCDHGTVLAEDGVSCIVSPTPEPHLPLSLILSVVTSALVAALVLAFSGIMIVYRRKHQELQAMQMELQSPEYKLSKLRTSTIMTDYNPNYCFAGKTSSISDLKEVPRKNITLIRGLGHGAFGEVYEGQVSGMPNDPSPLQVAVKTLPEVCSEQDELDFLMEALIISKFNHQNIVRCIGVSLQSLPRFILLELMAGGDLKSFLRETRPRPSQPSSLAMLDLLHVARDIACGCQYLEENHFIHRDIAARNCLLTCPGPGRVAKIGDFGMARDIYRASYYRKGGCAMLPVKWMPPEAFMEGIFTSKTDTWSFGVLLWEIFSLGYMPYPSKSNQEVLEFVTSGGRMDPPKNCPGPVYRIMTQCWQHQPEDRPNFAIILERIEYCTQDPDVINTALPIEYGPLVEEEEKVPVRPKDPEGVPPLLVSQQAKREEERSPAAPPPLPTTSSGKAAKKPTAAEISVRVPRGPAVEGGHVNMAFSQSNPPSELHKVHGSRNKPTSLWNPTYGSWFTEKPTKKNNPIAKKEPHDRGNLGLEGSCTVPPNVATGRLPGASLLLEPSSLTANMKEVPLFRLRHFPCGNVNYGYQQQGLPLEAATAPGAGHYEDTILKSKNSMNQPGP
T3 sequence (P07948 whole entry, change not shown, the tested form may be a part): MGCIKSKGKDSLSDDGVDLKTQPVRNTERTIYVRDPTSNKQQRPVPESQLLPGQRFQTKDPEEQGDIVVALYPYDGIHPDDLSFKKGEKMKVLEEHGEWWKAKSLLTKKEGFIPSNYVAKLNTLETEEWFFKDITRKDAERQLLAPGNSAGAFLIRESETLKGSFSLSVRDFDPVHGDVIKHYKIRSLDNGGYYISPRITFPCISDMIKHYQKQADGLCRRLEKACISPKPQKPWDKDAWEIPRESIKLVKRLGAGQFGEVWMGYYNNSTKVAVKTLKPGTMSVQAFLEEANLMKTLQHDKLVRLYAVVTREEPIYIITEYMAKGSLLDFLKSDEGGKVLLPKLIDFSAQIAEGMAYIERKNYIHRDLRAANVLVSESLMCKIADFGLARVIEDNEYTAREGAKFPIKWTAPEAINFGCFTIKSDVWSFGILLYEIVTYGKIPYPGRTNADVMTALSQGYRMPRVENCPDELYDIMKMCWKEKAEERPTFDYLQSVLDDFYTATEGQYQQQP
T6 sequence (P35590 whole entry, change not shown, the tested form may be a part): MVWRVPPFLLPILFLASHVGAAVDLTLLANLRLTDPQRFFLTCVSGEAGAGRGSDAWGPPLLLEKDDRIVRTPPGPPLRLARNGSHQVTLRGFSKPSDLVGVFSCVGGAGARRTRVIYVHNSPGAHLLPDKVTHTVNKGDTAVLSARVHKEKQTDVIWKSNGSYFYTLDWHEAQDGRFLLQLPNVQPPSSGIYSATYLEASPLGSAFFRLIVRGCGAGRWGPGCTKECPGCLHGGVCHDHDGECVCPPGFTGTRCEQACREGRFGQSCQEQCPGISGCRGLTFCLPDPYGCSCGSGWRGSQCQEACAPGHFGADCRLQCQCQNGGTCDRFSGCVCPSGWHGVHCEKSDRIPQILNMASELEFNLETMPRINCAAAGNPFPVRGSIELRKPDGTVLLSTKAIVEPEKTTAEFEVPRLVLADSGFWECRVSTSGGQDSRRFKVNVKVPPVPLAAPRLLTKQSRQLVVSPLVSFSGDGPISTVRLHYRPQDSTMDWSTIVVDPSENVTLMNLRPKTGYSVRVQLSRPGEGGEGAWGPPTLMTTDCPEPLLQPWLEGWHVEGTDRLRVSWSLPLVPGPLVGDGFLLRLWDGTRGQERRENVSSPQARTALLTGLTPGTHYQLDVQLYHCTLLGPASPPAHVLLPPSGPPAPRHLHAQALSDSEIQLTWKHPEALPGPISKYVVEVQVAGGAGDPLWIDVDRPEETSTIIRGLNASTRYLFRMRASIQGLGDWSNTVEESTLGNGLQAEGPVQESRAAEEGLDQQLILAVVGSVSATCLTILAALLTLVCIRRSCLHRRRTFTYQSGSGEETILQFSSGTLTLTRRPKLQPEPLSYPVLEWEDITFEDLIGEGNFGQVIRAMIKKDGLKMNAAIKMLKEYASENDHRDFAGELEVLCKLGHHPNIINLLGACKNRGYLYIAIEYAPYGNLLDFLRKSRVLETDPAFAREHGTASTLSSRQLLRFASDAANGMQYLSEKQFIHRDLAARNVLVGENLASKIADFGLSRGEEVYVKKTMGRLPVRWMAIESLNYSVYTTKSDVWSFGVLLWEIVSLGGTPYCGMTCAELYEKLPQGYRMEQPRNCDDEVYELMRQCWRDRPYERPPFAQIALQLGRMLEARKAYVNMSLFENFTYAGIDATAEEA
T5 sequence (P08631 whole entry, change not shown, the tested form may be a part): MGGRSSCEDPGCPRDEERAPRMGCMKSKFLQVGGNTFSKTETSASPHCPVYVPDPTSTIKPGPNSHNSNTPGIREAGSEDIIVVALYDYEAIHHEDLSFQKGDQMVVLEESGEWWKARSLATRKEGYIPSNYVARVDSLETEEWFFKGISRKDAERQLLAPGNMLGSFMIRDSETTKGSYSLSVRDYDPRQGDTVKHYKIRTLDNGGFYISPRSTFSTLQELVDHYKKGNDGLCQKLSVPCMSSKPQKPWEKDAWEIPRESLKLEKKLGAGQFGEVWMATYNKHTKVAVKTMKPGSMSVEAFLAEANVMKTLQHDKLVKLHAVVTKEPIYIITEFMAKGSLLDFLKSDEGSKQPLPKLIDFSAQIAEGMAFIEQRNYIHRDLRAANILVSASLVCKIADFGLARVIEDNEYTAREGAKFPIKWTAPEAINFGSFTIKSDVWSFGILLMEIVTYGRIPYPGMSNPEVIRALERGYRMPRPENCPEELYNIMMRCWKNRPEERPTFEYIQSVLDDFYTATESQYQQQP

Turning to `Cc1ccc(Nc2ncc3c(n2)N(C2CCCC2)CN(c2cc(NC(=O)c4cccc(C(F)(F)F)c4)ccc2C)C3)cn1` [IB-3, N-(3-(1-cyclopentyl-7-((6-methylpyridin-3-yl)amino)-1,4-dihydropyrimido[4,5-d]pyrimidin-3(2H)-yl)-4-methylphenyl)-3-(trifluoromethyl)benzamide], the GI50 at BaF3-BCR/ABL was 0.303 µM; at BaF3-BCR/ABL-T315I, 9.23 µM; on BaF3-TEL-LYN, 3.3 µM; at BaF3-EML4-ALK it was 5.88 µM; on BaF3-TEL-HCK it was 3.15 µM; at BaF3-TEL-TIE1, 3.82 µM. For the same compound, the IC50 (in general, the concentration needed to halve the response being measured) with BaF3-KRASD12 was 5.83 µM; with BaF3-NRASD12 it was 5.97 µM; with Wt-BaF3, 9.71 µM.

For the compound `Cc1ccc(NC(=O)c2cccc(C(F)(F)F)c2)cc1N1Cc2cnc(NCCN(C)C)nc2N(C)C1` [IA-2, N-(3-(7-((2-(dimethylamino)ethyl)amino)-1-methyl-1,4-dihydropyrimido[4,5-d]pyrimidin-3(2H)-yl)-4-methylphenyl)-3-(trifluoromethyl)benzamide], the GI50 is greater than 10 µM on BaF3-BCR/ABL; 1.32 µM on BaF3-TEL-LYN; roughly 2.78 µM at BaF3-EML4-ALK; 2.56 µM on BaF3-TEL-HCK; 1.59 µM at BaF3-TEL-TIE1; 1.33 µM at BaF3-TEL-INSR. The IC50 was determined as 3.98 µM in the experiment on BaF3-KRASD12, 3.38 µM with BaF3-NRASD12 and 4.54 µM in the experiment on Wt-BaF3.

In the case of `Cc1ccc(NC(=O)c2cccc(C(F)(F)F)c2)cc1N1Cc2cnc(Nc3cnn(C)c3)nc2N(C)C1` [IA-10, N-(4-methyl-3-(1-methyl-7-((1-methyl-1H-pyrazol-4-yl)amino)-1,4-dihydropyrimido[4,5-d]pyrimidin-3(2H)-yl)phenyl)-3-(trifluoromethyl)benzamide], the GI50 on BaF3-BCR/ABL came to 0.000251 µM; on BaF3-BCR/ABL-T315I, 2.76 µM; on BaF3-TEL-LYN, 1.43 µM; on BaF3-EML4-ALK, 4.64 µM; on BaF3-TEL-HCK, 1.77 µM; on BaF3-TEL-TIE1, 2.32 µM. For the same compound, the IC50 in the experiment on BaF3-KRASD12 was 4.6 µM; with BaF3-NRASD12 it was 2.9 µM; in the experiment on Wt-BaF3, 11.8 µM.

Consider `CONC(=O)c1ccc(C)c(N2Cc3cnc(Nc4ccc(C)nc4)nc3N(C)C2)c1` [IC-4, N-methoxy-4-methyl-3-(1-methyl-7-((6-methylpyridin-3-yl)amino)-1,4-dihydropyrimido[4,5-d]pyrimidin-3(2H)-yl)benzamide], for which the GI50 on BaF3-BCR/ABL was 0.0631 µM; on BaF3-BCR/ABL-T315I, greater than 10 µM; at BaF3-TEL-LYN, greater than 10 µM; on BaF3-EML4-ALK, greater than 10 µM; on BaF3-TEL-TIE1, greater than 10 µM. Moreover, the IC50 with BaF3-KRASD12, in the experiment with BaF3-NRASD12 and in the experiment with Wt-BaF3 was greater than 10 µM in each case.

Regarding `Cc1ccc(Nc2ncc3c(n2)N(c2ccccc2)CN(c2cc(NC(=O)c4cccc(C(F)(F)F)c4)ccc2C)C3)cn1` [IB-4, N-(4-methyl-3-(7-((6-methylpyridin-3-yl)amino)-1-phenyl-1,4-dihydropyrimido[4,5-d]pyrimidin-3(2H)-yl)phenyl)-3-(trifluoromethyl)benzamide], the GI50 is 0.669 µM on BaF3-BCR/ABL; 4.11 µM on BaF3-TEL-LYN; greater than 10 µM at BaF3-EML4-ALK; 4.61 µM at BaF3-TEL-HCK; 3.68 µM at BaF3-TEL-TIE1. The figures for the IC50 in the experiment with BaF3-KRASD12, in the experiment with BaF3-NRASD12 and with Wt-BaF3 were 5.36 µM, 4.93 µM and 17.1 µM, respectively.

`Cc1ccc(NC(=O)c2cccc(C(F)(F)F)c2)cc1N1Cc2cnc(NCCN3CCOCC3)nc2N(C)C1` [IA-5, N-(4-methyl-3-(1-methyl-7-((2-morpholinoethyl)amino)-1,4-dihydropyrimido[4,5-d]pyrimidin-3(2H)-yl)phenyl)-3-(trifluoromethyl)benzamide]: the GI50 on BaF3-BCR/ABL came to 1.72 µM; at BaF3-BCR/ABL-T315I it was 2.92 µM; at BaF3-TEL-LYN it was 2.14 µM; on BaF3-EML4-ALK, 4.05 µM; at BaF3-TEL-TIE1 it was 3.24 µM. In addition, the IC50 was 3.44 µM in the experiment on BaF3-KRASD12, 3.29 µM in the experiment on BaF3-NRASD12 and 6.3 µM in the experiment with Wt-BaF3.
